Data as given in US20090298708A1, “2'-DEOXY-2'-FLUORO-BETA-D-ARABINONUCLEOSIDE 5'-TRIPHOSPHATES AND THEIR USE IN ENZYMATIC NUCLEIC ACID SYNTHESIS” (priority 2006, published 2009).

How the values were obtained:
DV DNA polymerase = target: T1, DV DNA polymerase (Pyrococcus sp., UniProt Q51334, D141A/DEL493-1029/E143A); test: Dropout assay, fidelity of incorporation by DV; assay type: biochemical, Pyrococcus species GB-D; settings: 30 min reaction time, 25 μM triphosphates, 55° C., template A: PF41, G: PF43, T: PF21, C: PF23
T1 construct: purchased New England Biolabs; host or cells: E. coli
Description: (§1) FIG. 11A illustrates the fidelity of 2′F-araATP incorporation on a DNA template PF41 by DV and 9N DNA polymerases. Reaction conditions: 0.8 unit DV and 9N, 25 μM triphosphates at 55° C. in 30 μL reaction volume; incubation time: 30 min. Group 1 & 5: dNTPs; 2 & 6: dropout of dATP; 3 & 7: 2′F-araNTPs, 4 & 8: dropout of 2′F-araATP; 27mer control DNA is PF39.
(§2) FIG. 11B illustrates the fidelity of 2′F-araGTP incorporation on DNA template PF43 by DV and 9N DNA polymerases. Reaction conditions: primer/template (1:1 molar ratio): 100 nM; 0.4 μL (0.8 unit) DV, 9N, 25 μM triphosphate concentration at 55° C. in 30 μL reaction volume. Reaction time for dNTPs (group 1, 5) was 30 min and others were shown above. Group 1 & 5: dNTPs; 2 & 6: drop out dGTP (i.e. dTTP, dCTP and dATP), 3 & 7: 2TF-araNTPs, 4 & 8: drop out 2′F-araGTP; lane P is the template PF41 as the full-length product control; PF39 is a 27-nt DNA control. All samples were analyzed by 12% denaturing PAGE.
(§3) FIG. 12A illustrates the fidelity of 2′F-araTTP incorporation by DV and 9N DNA polymerases on a DNA template PF21. Reaction conditions: 100 nM primer/template (1:1 molar ratio); 0.4 μL (0.8 unit) DV or 9N, 25 μM triphosphate concentration at 55° C. in 30 μL reaction volume. Reaction time for dNTPs (group 1, 5) was 30 min and others were shown above. Groups 1 & 5: dNTPs; 2 & 6: drop out dTTP; 3 & 7: 2′F-araNTPs; 4 & 8: drop out 2′F-araTTPs. in B: group 1 & 5: dNTPs; 2 & 6: drop out dCTP; 3 & 7: 2′F-araNTPs; 4 & 8: drop out 2′F-araCTPs; PF39 is a 27-nt DNA control. All samples were analyzed by 12% denaturing PAGE.
as §3, with “12B” for “12A”, “fidelity study” for “fidelity”, “2′F-araCTP” for “2′F-araTTP”, “PF23.” for “PF21.”, “(groups” for “(group”, “Groups” for “Groups 1 & 5: dNTPs; 2 & 6: drop out dTTP; 3 & 7: 2′F-araNTPs; 4 & 8: drop out 2′F-araTTPs. in B: group”
(§4) “Dropout assays” (Ichida et al. (2005) J. Am. Chem. Soc. 127:2802-2803) were conducted to assess the fidelity of 2′F-araNTP incorporation (each of 2′F-araATP, 2′F-araCTP, 2′F-araGTP and 2′F-araTTP) by various DNA polymerases (FIGS. 11-14). For example, the 2′F-araNTP of interest is removed from the pool, and the ensuing synthesis on DNA template (e.g. PF21, PF23, PF41, PF43) assessed in comparison with a control reaction containing all four 2′F-araNTPs. For comparison, dropout experiments containing dNTPs are run in parallel. Full-length DNA and FANA products are obtained when all four dNTPs (group 1 and 5) and 2′F-araNTPs (groups 3 and 7) were available, however, some pausing may occur during synthesis of the arabinose modified oligomers. Apparent fidelity was calculated according to the equation:
(§5) 1−[(% full-length−2′F-araNTP)/(% full-length+2′F-araNTP)]
(§6) at 30 min reaction time (sample equation for dNTP values). >99% means that the full-length product was not detectable in our dropout assays.
(§7) “Dropout assays” (Ichida et al. (2005) J. Am. Chem. Soc. 127:2802-2803) were conducted to assess apparent fidelity of 2′F-araNTP incorporation by DV and 9N. In one of these assays, 2′F-araATP was removed from the pool, and the ensuing synthesis assessed in comparison with a control reaction containing all four 2′F-araNTPs. For comparison, dropout experiments containing dNTPs were run in parallel (FIGS. 11-14). Full-length DNA and FANA products were obtained when all four dNTPs (group 1 and 5) and 2′F-araNTPs (groups 3 and 7) were available, although some pausing was evident during synthesis of the arabinose modified oligomers.

9N DNA polymerase = target: T2, 9N DNA polymerase (Thermococcus sp., UniProt Q56366, E143D); test: Dropout assay, fidelity of incorporation by 9N; assay type: biochemical, Thermococcus species (strain 9° N-7); settings: 30 min reaction time, 25 μM triphosphates, 55° C., template A: PF41, G: PF43, T: PF21, C: PF23
T2 construct: purchased New England Biolabs; host or cells: E. coli
Description: as §1, §2, §3
as §3, with “12B” for “12A”, “fidelity study” for “fidelity”, “2′F-araCTP” for “2′F-araTTP”, “PF23.” for “PF21.”, “(groups” for “(group”, “Groups” for “Groups 1 & 5: dNTPs; 2 & 6: drop out dTTP; 3 & 7: 2′F-araNTPs; 4 & 8: drop out 2′F-araTTPs. in B: group”
as §4, §5, §6, §7

[1] = system: Phusion DNA polymerase (Ph); test: Dropout assay, fidelity of incorporation by Ph; assay type: biochemical; settings: 30 min reaction time, 55° C., templates PF21, PF41
From the text: FIG. 13 illustrates the fidelity of 2′F-araNTP incorporation on pyrimidine rich DNA template PF21 by Ph DNA polymerase. […] Template PF41 and primer PF20 are shown; PF39 is a 27-nt DNA control.
FIG. 14 illustrates the fidelity of 2′F-araNTP incorporation on purine rich DNA template PF41 by Ph DNA polymerase. The base sequence of the primer, DNA template and resulting terminated products in different dropout conditions (condition 1-5) is shown. […] Lane 1: dNTPs; 2: drop out dCTP (i.e. dATP, dGTP and dTTP, shorten as AGT, same coding for lanes 3-5), lane 6: 2′F-araNTPs; 7: drop out 2′F-araCTP (i.e. 2′F-araATP, 2′F-araGTP, 2′F-araTTP, shorten as AGT; same coding for lanes 8-10). The template PF41 and the primer PF20 are shown; PF39 is a 27mer DNA control.
For example, the 2′F-araNTP of interest is removed from the pool, and the ensuing synthesis on DNA template (e.g. PF21, PF23, PF41, PF43) assessed in comparison with a control reaction containing all four 2′F-araNTPs. For comparison, dropout experiments containing dNTPs are run in parallel. […] Apparent fidelity was calculated according to the equation:
as §5
In one of these assays, 2′F-araATP was removed from the pool, and the ensuing synthesis assessed in comparison with a control reaction containing all four 2′F-araNTPs. For comparison, dropout experiments containing dNTPs were run in parallel (FIGS. 11-14).
Phusion DNA polymerase (Ph) was evaluated for fidelity of 2′F-araNTP incorporation using the same dropout assay. All four dropout experiments were conducted with the same DNA template PF21 (FIG. 13), or PF41 (FIG. 14).

Structure (SMILES)	% Apparent Fidelity, dNTP (DV DNA polymerase)	% Apparent Fidelity, dNTP (9N DNA polymerase)	% Apparent Fidelity, dNTP [1]	% Apparent Fidelity, 2′F-araNTP (DV DNA polymerase)	% Apparent Fidelity, 2′F-araNTP (9N DNA polymerase)	% Apparent Fidelity, 2′F-araNTP [1]
Nc1ccn([C@H]2C[C@H](O)[C@@H](COP(=O)(O)OP(=O)(O)OP(=O)(O)O)O2)c(=O)n1 [dCTP]	3%	82%	>99%			
Cc1cn([C@H]2C[C@H](O)[C@@H](COP(=O)(O)OP(=O)(O)OP(=O)(O)O)O2)c(=O)[nH]c1=O [dTTP, reference compound]	19%	32%	>99%			
Nc1ccn([C@@H]2O[C@H](COP(=O)(O)OP(=O)(O)OP(=O)(O)O)[C@@H](O)[C@@H]2F)c(=O)n1 [2′F-araCTP, 1-(2-deoxy-2-fluoro-β-D-arabinofuranosyl)cytosine 5′-triphosphate]				C: 50%	C: 43%	C: >99%
Cc1cn([C@@H]2O[C@H](COP(=O)(O)OP(=O)(O)OP(=O)(O)O)[C@@H](O)[C@@H]2F)c(=O)[nH]c1=O [2′F-araTTP, 1-(2-deoxy-2-fluoro-β-D-arabino-furanosyl)thymine 5′-triphosphate]				T: 3%	T: 76%	T: >99%
